Data on two molecules can be found in patent publication US12465602B2, “Use of an opioid molecule for treating dry eye and eyes suffering from allergies” (H4 ORPHAN PHARMA, priority 2019, dated 2025).

One data set has as its target T1, non-mutated CFTR (Homo sapiens, UniProt P13569).
T1 construct: endogenous in cells; host or cells: human glandular (lacrimal gland) epithelial cells, polarised on Snapwell filters
In words: Ussing chamber short-circuit current on lacrimal gland epithelial cells expressing non-mutated CFTR. Type of data set: cell-based. The text has this:
To study this action on the modulation of CFTR, the inventors have used the Ussing chamber method, invented by the Danish Hans H. Ussing at the end of the 1950s. This technique allows studying ionic exchanges through an epithelium, as they allow maintaining the tissue of interest in survival for a few hours under controlled conditions of temperature and medium. The positioning of the tissue between two half-chambers allows defining an apical compartment (corresponding to the lumen of the organ) and a basolateral compartment (corresponding to the blood compartment) and studying the exchanges between these two compartments via the tissue.
This technique is commonly used and it is particularly well-suited for a pharmacological approach of ionic transports and to search for molecules of therapeutic interest in the context of ionic secretions from epithelial cells. It consists in measuring the transepithelial current (called short-circuit and denoted Ise). Ise is expressed in amperes relative to the unit surface area of the epithelium (Ise in μA/cm2). The cells are cultured on a porous filter for 10 to 15 days at the liquid-liquid then air-liquid interface in order to mimic conditions close to in vivo. The transepithelial resistance is regularly measured during the culture. The higher this resistance (several hundred ohms), the more the epithelial tissue is contiguous, polarised and therefore tight. At the Air (apical side)—Liquid (basolateral side) interface, the epithelial cells polarise and form a tight mat that can be studied with the Ussing chamber technique. We have used a system with 6 vats from Physiologie Instrument@ enabling 6 experiments in parallel.
The inventors have prepared a 100 μM stock solution in DMSO.

Another data set deals with basophils. Put plainly: Basophil activation test (Flow CAST kit), CD63 expression by flow cytometry after anti-FcεRI stimulation. Type of data set: cell-based, human. The note with it: noscapine 10 μM, whole blood, FIG. 9. The text has this:
These two cells intervene in the IgE-dependent allergic reaction; they express the high-affinity IgE receptor. Nevertheless, the mediators released by these cells during this activation are different for some of them. Moreover, basophils and especially mast cells intervene in innate immunity. Thus, basophils and mast cells have many characteristics in common and more particularly, the secretion of IL4 and IL13 which are known to induce the stimulation of collagen synthesis and the proliferation of fibroblasts responsible for fibrosis. Fibrosis can affect the Meibomian glands in dry eye and allergic eye. […]
It is designed for the in vitro diagnosis of the expression of the CD63 marker as a surface marker of activated basophils. The test is carried out on whole blood; flow cytometry allows quantifying the expression of CD63 at the surface of activated basophils. […]
This granularity may be due to irregularities inside or at the surface of the cells or to the density of the organelles that compose it (acess.ens-lyon.fr). Afterwards, fluorescence markers allow better characterising the different cell subpopulations (these markers are coupled with the differentiation clusters). […] The latter has been analysed in order to observe the expected results in the absence of stimulation and therefore of degranulation. […]

For data set [1] the following is noted: cited from earlier work.

Like-named read-outs stand apart in the source and are kept apart here.

T1 sequence (P13569 whole entry, change not shown): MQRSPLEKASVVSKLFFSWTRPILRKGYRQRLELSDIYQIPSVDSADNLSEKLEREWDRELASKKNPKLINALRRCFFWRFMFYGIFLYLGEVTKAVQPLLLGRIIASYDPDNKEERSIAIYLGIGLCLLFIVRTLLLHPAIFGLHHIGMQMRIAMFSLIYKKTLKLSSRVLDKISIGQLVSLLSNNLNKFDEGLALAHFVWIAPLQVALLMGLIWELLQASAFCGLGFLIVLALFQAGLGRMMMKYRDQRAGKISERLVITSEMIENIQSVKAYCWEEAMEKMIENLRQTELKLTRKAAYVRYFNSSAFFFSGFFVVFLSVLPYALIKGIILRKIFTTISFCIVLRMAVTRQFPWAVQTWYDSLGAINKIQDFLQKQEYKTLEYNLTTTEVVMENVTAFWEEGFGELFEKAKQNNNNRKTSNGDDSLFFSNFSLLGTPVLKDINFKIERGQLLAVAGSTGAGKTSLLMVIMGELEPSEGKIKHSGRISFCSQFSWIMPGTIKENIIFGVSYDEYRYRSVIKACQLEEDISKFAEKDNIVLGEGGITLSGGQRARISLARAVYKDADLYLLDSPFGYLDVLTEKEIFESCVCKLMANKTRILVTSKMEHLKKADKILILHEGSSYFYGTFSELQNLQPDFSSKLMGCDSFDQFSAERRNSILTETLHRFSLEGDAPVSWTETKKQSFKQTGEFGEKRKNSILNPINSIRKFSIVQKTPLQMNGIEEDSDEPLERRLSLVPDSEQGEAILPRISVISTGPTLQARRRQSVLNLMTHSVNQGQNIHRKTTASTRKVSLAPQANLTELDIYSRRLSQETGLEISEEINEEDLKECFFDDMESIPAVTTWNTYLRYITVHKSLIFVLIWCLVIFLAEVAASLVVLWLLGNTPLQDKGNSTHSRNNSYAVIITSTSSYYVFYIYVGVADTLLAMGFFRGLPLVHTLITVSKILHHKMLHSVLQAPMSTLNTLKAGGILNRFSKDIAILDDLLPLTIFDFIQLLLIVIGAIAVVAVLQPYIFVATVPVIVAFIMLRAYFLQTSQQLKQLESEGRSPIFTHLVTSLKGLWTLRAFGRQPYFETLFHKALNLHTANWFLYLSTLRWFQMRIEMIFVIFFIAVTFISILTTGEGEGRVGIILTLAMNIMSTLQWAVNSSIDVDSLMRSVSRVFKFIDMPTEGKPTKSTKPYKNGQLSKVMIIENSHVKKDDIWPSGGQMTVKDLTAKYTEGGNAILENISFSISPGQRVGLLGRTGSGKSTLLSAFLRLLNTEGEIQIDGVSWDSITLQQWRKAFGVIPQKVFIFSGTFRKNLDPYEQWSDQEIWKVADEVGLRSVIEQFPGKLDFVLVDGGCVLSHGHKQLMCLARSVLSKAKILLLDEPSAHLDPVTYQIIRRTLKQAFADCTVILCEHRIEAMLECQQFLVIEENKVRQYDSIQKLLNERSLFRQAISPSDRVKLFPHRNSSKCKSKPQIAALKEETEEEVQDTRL

As to `O=C(O)c1ccc(C=C2SC(=S)N(c3cccc(C(F)(F)F)c3)C2=O)cc1` [Inh172], the “effect of Inh172 on cellular potential” value at non-mutated CFTR (Inh172 10 μM, first series (apical side)) is listed as “completely blocks the cellular potential”. In addition, on non-mutated CFTR (Inh172 10 μM, lacrimal gland epithelial cells), the “effect of Inh172 on cellular potential, second series” value is “completely blocks the cellular potential”.
`COc1ccc2c(c1OC)C(=O)O[C@@H]2[C@H]1c2c(cc3c(c2OC)OCO3)CCN1C` [noscapine, (3S)-6,7-dimethoxy-3-[(5R)-4-methoxy-6-methyl-7,8-dihydro-5H-[1,3]dioxolo[4,5-g]isoquinolin-5-yl]-3H-2-benzofuran-1-one]: on non-mutated CFTR (10 μM noscapine, non-mutated epithelial cells, apical side, switches from 16), the “short-circuit current differential after addition of noscapine, apical side” value is recorded as “more than 20 μA/cm2”. For the same molecule, the “short-circuit current differential after addition of noscapine, second series” value on non-mutated CFTR (10 μM noscapine, non-mutated lacrimal gland epithelial cells, printed apical side, switches from 6.5) is given as “more than 7.5 μA/cm2”. The EC50 at non-mutated CFTR (apical pole, FIG. 2, read-out: EC50 activity for the apical pole) was 3.42 µM; at non-mutated CFTR (basal pole, FIG. 3, read-out: EC50 for the basal pole), 4.87 µM. In addition, in the data set with basophils, the “inhibition of basophil degranulation caused by anti-FcεRI antibody (CD63+ CCR3+)” value is given as “blocks the activation of basophil degranulation”. Besides, in data set [1] (benzene and acetone), the “solubility in organic solvents” value is “soluble in benzene and acetone”. Besides, the solubility in water entry in data set [1] (water) is on record as “Insoluble in water”.
